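GI50 marks 50% less growth. TGI: concentration producing complete growth inhibition.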
Key:
Experiment in all cases: NCI tumour cell line growth inhibition, 384-well format
ACHN renal = system: ACHN renal
T-47D breast = system: T-47D breast
NCI-H226 lung = system: NCI-H226 lung
OVCAR-5 ovarian = system: OVCAR-5 ovarian
HS 578T breast = system: HS 578T breast
SK-MEL-28 melanoma = system: SK-MEL-28 melanoma
OVCAR-3 ovarian = system: OVCAR-3 ovarian
TK-10 renal = system: TK-10 renal
NCI-H460 NSCLC = system: NCI-H460 NSCLC
SF-539 CNS = system: SF-539 CNS
SK-MEL-5 melanoma = system: SK-MEL-5 melanoma
MALME-3M melanoma = system: MALME-3M melanoma
LOX IMVI melanoma = system: LOX IMVI melanoma
CCRF-CEM leukemia = system: CCRF-CEM leukemia
A549 NSCLC = system: A549 NSCLC
M14 melanoma = system: M14 melanoma
HL-60(TB) leukemia = system: HL-60(TB) leukemia
KM12 colon = system: KM12 colon
SF-268 CNS = system: SF-268 CNS
UACC-62 melanoma = system: UACC-62 melanoma
RXF 393 renal = system: RXF 393 renal
SK-MEL-2 melanoma = system: SK-MEL-2 melanoma
SK-OV-3 ovarian = system: SK-OV-3 ovarian
IGROV1 ovarian = system: IGROV1 ovarian
COLO 205 colon = system: COLO 205 colon
HCT-15 colon = system: HCT-15 colon
SR leukemia = system: SR leukemia
UO-31 renal = system: UO-31 renal
CAKI-1 renal = system: CAKI-1 renal
SNB-19 CNS = system: SNB-19 CNS
786-0 renal = system: 786-0 renal
HOP-62 NSCLC = system: HOP-62 NSCLC
NCI/ADR-RES ovarian = system: NCI/ADR-RES ovarian
RPMI-8226 leukemia = system: RPMI-8226 leukemia
NCI-H23 lung = system: NCI-H23 lung
SW-620 colon = system: SW-620 colon
HCT-116 colon = system: HCT-116 colon
K-562 leukemia = system: K-562 leukemia
EKVX NSCLC = system: EKVX NSCLC
DU-145 prostate = system: DU-145 prostate
SNB-75 CNS = system: SNB-75 CNS
PC-3 prostate = system: PC-3 prostate
MCF7 breast = system: MCF7 breast
U251 glioblastoma = system: U251 glioblastoma
A498 renal = system: A498 renal
OVCAR-8 ovarian = system: OVCAR-8 ovarian
MDA-MB-468 breast = system: MDA-MB-468 breast

NC(=O)c1nc(-c2c(F)cccc2Cl)oc1Nc1ccc(C(=O)N2CCOCC2)cc1
GI50 (ACHN renal): 0.779 µM | TGI (ACHN renal): 3.6 µM | GI50 (T-47D breast): 0.682 µM | TGI (T-47D breast): 20.7 µM | GI50 (NCI-H226 lung): 0.474 µM | TGI (NCI-H226 lung): 2.67 µM | GI50 (OVCAR-5 ovarian): 2.47 µM | TGI (OVCAR-5 ovarian): 19.6 µM | GI50 (HS 578T breast): 1.34 µM | TGI (HS 578T breast): 3.75 µM | GI50 (SK-MEL-28 melanoma): 14.2 µM | TGI (SK-MEL-28 melanoma): > 90.9 µM | GI50 (OVCAR-3 ovarian): 1.6 µM | TGI (OVCAR-3 ovarian): 7.65 µM | GI50 (TK-10 renal): 2.58 µM | TGI (TK-10 renal): 8.79 µM | GI50 (NCI-H460 NSCLC): 0.395 µM | TGI (NCI-H460 NSCLC): 10.6 µM | GI50 (SF-539 CNS): 1.45 µM | TGI (SF-539 CNS): 7.64 µM | GI50 (SK-MEL-5 melanoma): 13.6 µM | TGI (SK-MEL-5 melanoma): 34.7 µM | GI50 (MALME-3M melanoma): 4.68 µM | TGI (MALME-3M melanoma): 12.3 µM | GI50 (LOX IMVI melanoma): 0.869 µM | TGI (LOX IMVI melanoma): 2.39 µM | GI50 (CCRF-CEM leukemia): 0.211 µM | TGI (CCRF-CEM leukemia): 0.383 µM | GI50 (A549 NSCLC): 0.686 µM | TGI (A549 NSCLC): 5.44 µM | GI50 (M14 melanoma): 17.3 µM | TGI (M14 melanoma): > 47.5 µM | GI50 (HL-60(TB) leukemia): 0.36 µM | TGI (HL-60(TB) leukemia): 1.09 µM | GI50 (KM12 colon): 0.17 µM | TGI (KM12 colon): 3.89 µM | GI50 (SF-268 CNS): 2.45 µM | TGI (SF-268 CNS): 11.2 µM | GI50 (UACC-62 melanoma): 5.96 µM | TGI (UACC-62 melanoma): 20.4 µM | GI50 (RXF 393 renal): 1.1 µM | TGI (RXF 393 renal): 3.3 µM | GI50 (SK-MEL-2 melanoma): 15.3 µM | TGI (SK-MEL-2 melanoma): 30.1 µM | GI50 (SK-OV-3 ovarian): 6.28 µM | TGI (SK-OV-3 ovarian): 28.6 µM | GI50 (IGROV1 ovarian): 1.4 µM | TGI (IGROV1 ovarian): 3.17 µM | GI50 (COLO 205 colon): 1.13 µM | TGI (COLO 205 colon): 7.44 µM | GI50 (HCT-15 colon): 2.41 µM | TGI (HCT-15 colon): 19 µM | GI50 (SR leukemia): 0.189 µM | TGI (SR leukemia): 0.342 µM | GI50 (UO-31 renal): 0.171 µM | TGI (UO-31 renal): 0.322 µM | GI50 (CAKI-1 renal): 1.76 µM | TGI (CAKI-1 renal): 5.85 µM | GI50 (SNB-19 CNS): 3.46 µM | TGI (SNB-19 CNS): 24.9 µM | GI50 ([…]-0 renal): 3.95 µM | TGI (786-0 renal): 9.55 µM | GI50 (HOP-62 NSCLC): 2.41 µM | TGI (HOP-62 NSCLC): 19.6 µM | GI50 (NCI/ADR-RES ovarian): 2.46 µM | TGI (NCI/ADR-RES ovarian): 7.79 µM | GI50 (RPMI-8226 leukemia): 0.444 µM | TGI (RPMI-8226 leukemia): 4.28 µM | GI50 (NCI-H23 lung): 0.6 µM | TGI (NCI-H23 lung): 4.43 µM | GI50 (SW-620 colon): 0.48 µM | TGI (SW-620 colon): 3.37 µM | GI50 (HCT-116 colon): 0.957 µM | TGI (HCT-116 colon): 13.8 µM | GI50 (K-562 leukemia): 1.62 µM | TGI (K-562 leukemia): 15 µM | GI50 (EKVX NSCLC): 1.96 µM | TGI (EKVX NSCLC): 7.57 µM | GI50 (DU-145 prostate): 4.44 µM | TGI (DU-145 prostate): 23.2 µM | GI50 (SNB-75 CNS): 1.78 µM | TGI (SNB-75 CNS): 4.24 µM | GI50 (PC-3 prostate): 4.22 µM | TGI (PC-3 prostate): 27.2 µM | GI50 (MCF7 breast): 0.708 µM | TGI (MCF7 breast): 16.8 µM | GI50 (U251 glioblastoma): 2.59 µM | TGI (U251 glioblastoma): 16 µM | GI50 (A498 renal): 1.86 µM | TGI (A498 renal): 16.1 µM | GI50 (OVCAR-8 ovarian): 4.51 µM | TGI (OVCAR-8 ovarian): 18.7 µM | GI50 (MDA-MB-468 breast): 1.5 µM | TGI (MDA-MB-468 breast): 4.23 µM
